From patent publication US9278065B2, “Delivery systems for solubilising water-insoluble pharmaceutical active ingredients” (EMS S/A, priority 2007, dated 2016)

Test: Particle size (Z-average) of the formulation mixed with water 1:50
Assay type: physicochemical
Protocol: The formulation according to present invention is prepared when the non-ionic surfactant mixture is thoroughly mixed with the solution of the active ingredient in the water-miscible organic solvent/co-solvent.
The present invention will now be illustrated by the following examples. It is understood, however, that such examples are provided for illustration only, and the invention is not intended to be limited by the examples. The formulation based on the system employed in the examples can be formed by any suitable method known in the art. In the examples the formulation was mixed with water at a ratio of 1:50 formulation: water to generate the system and measure the particle size formed in water. The particle size was measured by the method described in Pharmacopea Forum—2001 vol 27 (4) page 2724.

increase of particle Z-average (10% tioconazole formulation omitting DEGEE, compared with complete formulation containing DEGEE, PEG Oleate, polyethoxylated castor oil) | particle size of emulsion (10% tioconazole formulation omitting polyethoxylated castor oil, diluted 1:50 in water) | Z-average (0.5% tacrolimus in ethanol with DEGEE / PEG Oleate / polyethoxylated castor oil as per Table 3, diluted 1:50 in water) | SMILES
10% | 450 nm | – | Clc1ccc(C(Cn2ccnc2)OCc2ccsc2Cl)c(Cl)c1 (stereo not drawn) [Tioconazole]
– | – | 32 nm | C=CC[C@@H]1/C=C(\C)C[C@H](C)C[C@H](OC)[C@H]2O[C@@](O)(C(=O)C(=O)N3CCCC[C@H]3C(=O)O[C@H](/C(C)=C/[C@@H]3CC[C@@H](O)[C@H](OC)C3)[C@H](C)[C@@H](O)CC1=O)[C@H](C)C[C@@H]2OC [tacrolimus]
